Test results published in patent US20160082036A1, “HYDROXYALKYL STARCH FOR THE TREATMENT OF CANCERS BY REDUCTION OF TUMOR GROWTH RATES” (Fresenius Kabi Deutschland GmbH, priority 2012, published 2016).

Key:
[1] = test system: human breast cell carcinoma line MT-3; assay: Example 1: MT-3 xenograft tumor growth after single i.v. injection; assay type: in vivo
Protocol: Summary: Mice were either treated with a single i.v. injection of docetaxel (Taxotere®) at a dose of 25 mg/kg or with the plasma expander Voluven® (20 ml/kg) or with “HES 100/1.0” (approx. 740 mg/kg) dissolved in saline to determine tumor growth and body weight over the course of the experiment.
Docetaxel (available under the name Taxotere®) was obtained from Sanofi-Aventis Deutschland GmbH, (Lot CHB D9C895; Berlin, Germany) and was stored in the dark at −20° C. until use. […] “HES 100/1.0” (as specified in table 2 above) was dissolved in saline.
(§1) The final solution of docetaxel was prepared immediately before injection by mixing an appropriate volume of the original stock solution provided by Sanofi (20 mg/ml) with saline (0.9% NaCl, B. Braun Melsungen AG, Melsungen, Germany) as indicated in table 4 below. Saline was mixed with absolute ethanol to obtain an approx. 6.25% solution, the original vehicle of Taxotere®. Voluven® was used in the original formulation described above.
(§2) Adult female NMRI:nu/nu mice (TACONIC Europe, Lille Skensved, Denmark) bred in the own (EPO) colony were used throughout the study.
The MT-3 cell line was used for subcutaneous (s.c.) xenotransplantation in immune deficient female NMRI:nu/nu mice. […]
On study day 0 each 5×10^6 tumor cells were transplanted s.c. into the flank of each mouse. The animals were monitored for tumor growth and when tumors were palpable, generally between day 7 and day 10 after transplantation, mice were randomised into the treatment groups. […]
Individual tumor diameters were measured two times weekly with a calliper. Tumor volumes were calculated according to V=(length×(width)^2)/2. […] At each measurement day the median and mean tumor volumes per group and also the treated to control (T/C RTV) values in percent were calculated. […]

[2] = test system: human breast cell carcinoma line MT-3; assay: Example 2: MT-3 xenograft tumor growth after single i.v. injection; assay type: in vivo
Protocol: Summary: Mice were either treated with a single i.v. injection of docetaxel (Taxotere®) at a dose of 25 mg/kg or with the plasma expander Voluven® (20 ml/kg) or with HES 100/1.0 (approx. 740 mg/kg) dissolved in saline/EtOH to determine tumor growth and body weight over the course of the experiment.
Docetaxel (available under the name Taxotere®) was obtained from Sanofi-Aventis Deutschland GmbH, (Lot CHB D9C895; Berlin, Germany) and was stored in the dark at −20° C. until use. […] HES 100/1.0 (as specified in table 2 above) was dissolved in saline/EtOH.
as §1, with “indicated in the table 6” for “indicated in table 4”, “the table 6 below. Saline” for “in table 4 below. Saline”
as §2
The MT-3 cell line was used for subcutaneous (s.c.) xenotransplantation in immune deficient female NMRI:nu/nu mice. The MT-3 breast carcinoma cell line was obtained from the tumor bank of the National Cancer Institute of the former USSR, WONZ, Moscow (Naundorf H. Rewasowa E. Fichtner I et al. Characterization of two human mammary carcinomas, MT-1 and MT-3, suitable for in vivo testing of ether lipids and their derivatives. Breast Cancer Res Treat. 1992; 23:87-95).
The cells are cryo-preserved within the EPO tumor bank. Cells were thawed, expanded by in vitro culture and transplanted s.c. as cell suspension (5×10^6 tumor cells/mouse in 200 μl).
On study day 0 each 5×10^6 tumor cells were transplanted s.c. into the flank of each mouse. The animals were monitored for tumor growth and when tumors were palpable, about day 7 after inoculation, mice were randomised into the treatment groups.
The application volume was 10 ml/kg (approx. 200 μl/20 g mouse) mouse body weight for vehicle, HES 100/1.0 and docetaxel and 20 ml/kg for Voluven®. The route of administration was by intravenous (i.v.) injection into the tail vein.
Individual tumor diameters were measured two times weekly with a calliper. Tumor volumes were calculated according to V=(length×(width)^2)/2. For calculation of the relative tumor volume (RTV) the tumor volumes at each measurement day were related to the day of first treatment. At each measurement day the median and mean tumor volumes per group and also the treated to control (T/C RTV) values in percent were calculated.
Mice were sacrificed when tumors reached a mean size above 1 cm^3 per group. On the day of necropsy mice were sacrificed by cervical dislocation and inspected for gross organ changes.
Statistical evaluation of was performed with the U-test of Mann and Whitney using the Windows program […] 6. A significance level of p<0.05 was used.

[3] = single i.v. dose at day 7 after inoculation, MT-3 s.c. in NMRI:nu/nu mice, in cm3 (unit assumed)

In the case of `CC(=O)O[C@@]12CO[C@@H]1C[C@H](O)[C@@]1(C)C(=O)[C@H](O)C3=C(C)[C@@H](OC(=O)[C@H](O)[C@@H](NC(=O)OC(C)(C)C)c4ccccc4)C[C@@](O)([C@@H](OC(=O)c4ccccc4)[C@H]21)C3(C)C` [Docetaxel], the “Tumor volume (mean) at day 34” value [1, 3] is reported as 0.930 ± 0.395, the “Tumor volume (mean) nadir” value [1, 3] is reported as 0.072 ± 0.047 and the “inhibition of tumor growth (in words)” value ([1]; single i.v. treatment, compared to control group, FIG. 4) is reported as “significant inhibition of tumor growth”. For the same compound, the “tumor size at day 8” value ([2]; day 8 after inoculation (day of dosing)) was 0.0866 cm^3, the “Tumor volume (mean) cm^3/day 25” value ([2]; single i.v. dose at day 8 after inoculation) was 0.343 cm^3 and the “tumor size at day 10” value ([2]; single i.v. dose day 8) was 0.1046 cm^3. For the same compound, the “tumor size at day 15” value ([2]; single i.v. dose day 8) was 0.1228 cm^3, the “tumor size at day 18” value ([2]; single i.v. dose day 8) was 0.1995 cm^3 and the “tumor size at day 22” value ([2]; single i.v. dose day 8) was 0.2465 cm^3. The “tumor size at day 25” value ([2]; single i.v. dose day 8) was 0.3430 cm^3 and the “inhibition of tumor growth (in words)” value ([2]; single i.v. treatment, compared to control group, table 8, FIG. 2) was “significant inhibition of tumor growth”.
